Test results as given in patent publication US20240373849A1, “INSECT NEUROPEPTIDE ANALOGUES” (THE UNIVERSITY COURT OF THE UNIVERSITY OF GLASGOW, priority 2020, published 2024).
Several values for one entry are separate records, joined by “and”; a condition that tells them apart may be missing. Identical values can stand only once.

Tests used:
M. persicae [1] = experiment: Feeding of aphids with peptides in artificial diet (Example 1); format: in vivo, Myzus persicae; conditions: 10^−5 M
Experimental: A standard artificial diet for M. persicae was produced as described in Van Emden (2009) and provided the basal diet to which peptides were added for screening purposes. Peptides were diluted individually in the artificial diet to a pre-determined concentration.
Feeding apparatus were constructed using a set-up developed by Sadeghi et al (2009). For this, a piece of Parafilm was stretched over a Plexiglas ring (h=4 cm, Ø=3 cm) and 100 μl of the artificial diet containing the desired neuropeptide analogue was pipette onto the Parafilm membrane. A second piece of Parafilm, stretched to 4 times the original thickness, was stretched over the original layer, sandwiching the artificial diet between two layers of Parafilm. A strip of Parafilm was wrapped around the circumference of the Plexiglas ring, sealing in the diet. A plastic ring (h=1.2 cm, Ø=3.4 cm) was subsequently placed over the Parafilm layer, creating a walled chamber in which to house test aphids in contact with the Parafilm layer containing the artificial diet. Finally, a small Petri dish (h=1 cm, Ø=3.6 cm), modified for ventilation with net cloth, was placed on top of each feeding apparatus to prevent aphid escape.
To obtain aphids for use in experiments, reproducing anholocyclic adults were placed on individual excised leaves of Chinese cabbage at densities of 5 adults per leaf and allowed to reproduce for 24 h. The stem of each excised leaf was held within a 0.5 mL Eppendorf tube containing water via a punctured hole in the Eppendorf lid, and placed individually within a microcage (L=4 cm, Ø=9.5 cm). Following 24h, adults were removed and resultant first instar nymphs (<1 day old and synchronised in age to within 24h) retained. Nymphs were allowed to develop on the Chinese cabbage for 5 days. On day 5, (3rd instar) nymphs were transferred onto the artificial diet containing a neuropeptide analogue at densities of 1 per feeding chamber and monitored daily until death. Aphids were transferred to fresh artificial diet (containing neuropeptide analogue or water control) every 5 days.
The water control group was used to determine baseline lethality. Results for neuropeptide analogues were calculated as % lethality in the remaining population after adjustment for the baseline.

Myzus persicae aphids = experiment: Topical application by spraying, Potter Spray Tower (Example 3); format: in vivo; conditions: 48 hours post spray
Experimental: Aphids were exposed to test peptides in the absence of additional external stress conditions.
Brassica rapa (Chinese cabbage; Wong Bok) were infested with 30 adult Myzus persicae aphids per plant. Aphids were left at least 2 hours to settle and begin feeding from the host plant.
Potter Spray Tower (Burkard Manufacturing) was ‘primed’ by spraying 1000 μl of liquid coating the inside of the tower. Vehicle spray only (Croda ATPlus UEP 100 LQ-(CQ) 0.1% v/v) was used as a control.
Spray volumes for all solutions were 3000 μl. […] After spraying was completed the plant was allowed to rest on the spray platform for 30 seconds to allow settling of the sprayed chemical.
Post peptide application, each condition was placed into its own individual Bugdorm (Watkins and Doncaster, 44545), to prevent repulsed or displaced aphids moving from one condition to another. Numbers of alive and dead aphids on the plant were counted 48 hours post spray, and the presence of any fresh nymphs noted. Plants were watered prior to spraying but not afterwards to eliminate the possibility of drowning any aphids present or washing off the sprayed liquid.
The vehicle control group was used to determine baseline lethality. Results for neuropeptide analogues were calculated as % lethality in the remaining population after adjustment for the baseline.

[2] = tested on: aminopeptidase, endopeptidase, carboxypeptidase; format: in vitro ADME
Experimental: (§1) Enzyme digests were performed using aminopeptidase, endopeptidase, carboxypeptidase, or Drosophila melanogaster Malpighian tubule tissue extract. Peptide digests were performed in triplicate alongside ‘mock’ digests, where protease was substituted with water to determine peptide stability in aqueous media at 37° C. Several peptides were tested, including 1st generation AH56 and 3rs generation AH259. These are biostable in the presence of purified proteases for >24 hours; and for >3 hours to insect tissue extracts which are enriched for proteases.

[3] = tested on: bumblebees (Bombus terrestris); experiment: Bumblebee acute oral toxicity test; format: in vivo; conditions: for lethal effect on bumblebees: 1×10^−5 M in 50% sucrose, 0.1% ATPlus, oral; for safety towards B. terrestris in the bumblebee oral toxicity assay: in vivo
[4] = format: in vitro ADME, Drosophila melanogaster
Experimental: as §1

M. persicae [5] = experiment: Feeding of aphids with peptides in artificial diet (Example 2; peptide screening, honeydew); format: in vivo, Myzus persicae; conditions: Peptide screening, Table 5
From the text: (§2) First to Fourth generations of peptides were produced with varying structures and tested for CAPA receptor agonist activity, and screened for lethality in vivo against D. suzukii and M. persicae as per methods in example 2 and example 8. The top performing peptides were selected and gave rise to the list of CAPA1 and CAPA2 peptides provided above in Table 1 which were then further tested in the following applied examples.
The aphid feeding protocol was devised according to Sadeghi et al (2009) as explained in example 1. Feeding discs were designed and manufactured as above. A standard sucrose-based artificial diet for M. persicae (30 aphids per chamber, 3 chambers per experiment unless otherwise stated) was produced as described in example 1 (Sadeghi et al, J. Insect Science, 2009) and provided the basal diet to which peptides were added for screening purposes. Peptides were diluted individually in the artificial diet to 10^−5 M. Lethality was scored after up to 120 hours (IRAC guidelines for aphid testing).
Membrane discs were also included to collect ‘honeydew’ secreted by feeding aphids and stained with ninhydrin to observe feeding patterns.
Comparison of purple stain in controls to treated aphids, show there is very little colour on many membranes where peptides were added.
Capa peptides cause mortality in M. persicae via feeding: At 120 hours, AH383 and AH387 peptides induce ˜60% mean (and median) lethality. Although mean lethality is lower with AH270/PEGAH270 (40%), 100% lethality is observed in one sample of 30 insects (AH270); and 90% in at least one sample of each of AH383, AH387 and PEGAH270 (FIG. 3). Note that PEGAH270 is a pegylated form of peptide AH270.

[6] = tested on: Drosophila suzukii larvae; experiment: Drosophila suzukii larval feeding (Example 8; peptide screening); format: in vivo
Experimental: as §2
Peptides were tested at concentrations ranging from [10^−4 M] to [10^−7 M] in a final volume of 200 μl of 0.8% agarose containing 0.09% m-Cresol purple pH marker dye (Sigma) and 5% sucrose (Sigma).
Agarose was melted in dH2O, before addition of sucrose and dye. The agarose/dye solution was then allowed to cool to 60° C. 96 well plates (flat-bottomed 3596 TC-plates; Corning) containing 20 μl volumes of neuropeptide per well were prepared, and 180 μl agarose/dye solution dispensed into each well via a Distriman repetitive micro-pipettor (Gilson). Controls contained 20 μl dH2O as a ‘sham’ treatment with 180 μl of the 0.8% agarose/dye solution. Plates were agitated at 800 rpm, to ensure mixing, at 60° C. (Eppendorf Thermomixer C). Plates were then allowed to cool, and agarose/dye solution solidify, prior to use.
Each peptide was assayed with a minimum of 7 to maximum 9 late L2/early L3 Spotted wing Drosophila, Drosophila suzukii, (feeding) larvae per well, minimum n=8 wells per peptide concentration and a minimum n=12 control wells per plate. The selected larvae were first washed 2× in ice cold Drosophila Schneider's liquid medium (ThermoFisher) before insertion into wells to remove extraneous food. After complete insertion of all larvae the plates were covered with breathable sealing membrane for multi-well plates (Sigma).
Larvae were assayed for lethality after 48 hr exposure at 21° C. and findings recorded. During examination the assay plate was kept on ice, to reduce larval locomotor activity (wandering), and larvae in each well were examined using a binocular stereomicroscope (Zeiss).
The water control group was used to determine baseline lethality. Results for neuropeptide analogues were calculated as % lethality in the remaining population after adjustment for the baseline. Results are shown in Tables 7 and 8 below, and in FIG. 1.

CapaR = target: T1, CapaR (Drosophila melanogaster, UniProt Q8ITC7); experiment: Measurement of intracellular Ca2+ in S2 cells transfected with CapaR (agonist response); format: cell-based; conditions: 10^−7 M; activity normalised to that of native Capa2 (designated 100%)
T1 construct: transiently transfected with the apoaequorin ORF; expressed in transfected cells; host or cells: Drosophila melanogaster S2 cells, transient transfection, expression induced with CuSO4
T1 sequence (Q8ITC7 1-477): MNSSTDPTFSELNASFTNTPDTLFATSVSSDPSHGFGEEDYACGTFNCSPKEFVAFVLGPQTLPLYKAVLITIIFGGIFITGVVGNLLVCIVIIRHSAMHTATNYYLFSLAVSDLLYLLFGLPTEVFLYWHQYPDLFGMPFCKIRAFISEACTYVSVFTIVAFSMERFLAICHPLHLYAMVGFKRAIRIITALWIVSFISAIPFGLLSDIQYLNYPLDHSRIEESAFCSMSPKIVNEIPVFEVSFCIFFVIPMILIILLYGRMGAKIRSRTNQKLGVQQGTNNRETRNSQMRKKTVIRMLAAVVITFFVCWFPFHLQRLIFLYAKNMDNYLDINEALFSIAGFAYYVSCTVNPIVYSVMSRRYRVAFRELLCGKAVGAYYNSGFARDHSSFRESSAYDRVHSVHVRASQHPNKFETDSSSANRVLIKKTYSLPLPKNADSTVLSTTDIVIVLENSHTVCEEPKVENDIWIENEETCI
Experimental: Drosophila melanogaster S2 cells, cultured under standard conditions (1) were transiently transfected with the apoaequorin ORF (Radford J C, Davies S A, Dow J A. Systematic G-protein-coupled receptor analysis in Drosophila melanogaster identifies a leucokinin receptor with novel roles. J Biol Chem. 2002; 277:38810-38817) and a receptor ORF construct, and expression induced using CuSO4. Transfected S2 cells were harvested and incubated with 2.5 μM coelenterazine in the dark at RT for 1-2 h as described (ibid). 25,000 cells were then placed in 135 μl Schneider's medium supplemented with 10% FCS in a well of a white polystyrene 96-well plate (Berthold Technologies). Bioluminescence recordings were carried out using a Mithras LB940 automated 96-well plate reader (Berthold Technologies) and MikroWin software. 15 μl of each of different peptides were applied to final concentrations as required.
Peptides were tested at 10^−7M.
At the end of each recording samples were disrupted by the addition of 100 μl lysis solution, and the [Ca^2+] concentrations calculated as previously described (Rosay P, Davies S A, Yu Y, Sozen A, Kaiser K, et al. Cell-type specific calcium signalling in a Drosophila epithelium. J Cell Sci. 1997; 110:1683-1692).
For the Capa1 and Capa2 peptides, the relevant native control peptide (D. melanogaster Capa1 or Capa2 respectively) was used as a control. Control agonist activity was normalised to 100% and activity of neuropeptide analogues is expressed relative to that.

[7] = Table 12, individual bees, 20% sucrose 0.1% ATPlus AH56
[8] = Table 12, 20% sucrose 0.1% ATPlus AH56

Row | Compound | Feeding Aphid, % lethality in population after adjustment for baseline (M. persicae [1]) | Spray Aphid, % lethality in population after adjustment for baseline (Myzus persicae aphids; 10^−4 M) | Spray Aphid, % lethality in population after adjustment for baseline (Myzus persicae aphids; 10^−5 M) | biostable in the presence of purified proteases [2] | lethal effect on bumblebees [3] | Volume remaining [3, 7] | Volume removed [3, 7] | Volume remaining, group mean [3, 8] | Volume removed, group mean [3, 8] | safety towards B. terrestris in the bumblebee oral toxicity assay [3] | biostable to insect tissue extracts enriched for proteases [4] | M. persicae (% Lethality) (M. persicae [5]) | Feeding D. suzukii, % lethality in population after adjustment for baseline ([6]; 10^−5 M, 48 hr exposure) | D. suzukii (Mean% Lethality ± SD) ([6]; Peptide screening, Table 5, blank control 20.33) | CapaR Ca^2+ Agonist response (CapaR)
1 | H-Ahx-LVAFPRV-NH2 [AH56] | 30% | 41% | 35% | > 24 h | No lethal effect | 211 ul (2×) and 295 ul (2×) and 248 ul (2×) and 216 ul (2×) and 178 ul (2×) | 289 and 205 and 252 and 284 and 322 | 229.6 µL | 270.4 | safe | > 3 h | 30% | 51% | 50.63% | –
2 | CC(C)C[C@H](N=C(N(C)C)N(C)C)C(=O)N(C)[C@H](C(=O)N[C@@H](C)C(=O)N[C@@H](Cc1ccccc1)C(=O)N1CCC[C@H]1C(=O)N[C@@H](CCCNC(=N)N)C(=O)N[C@H](C(N)=O)C(C)C)C(C)C [AH259, Guanidyl-L-(Me)V-AFPRV-NH2] | – | – | – | > 24 h | No lethal effect | – | – | – | – | safe | > 3 h | – | – | – | 12%
